Source: patent US8067424B2, “Selective inhibitors for cyclin-dependent kinases” (Emory University, priority 2007, dated 2011)
Where two headings read alike, the source gives them in different places.

What was measured:
CAMKKα = CAMKKα (Homo sapiens, UniProt Q8N5S9); test: Kinase screen: CAMKKa assay; format: biochemical; conditions: read-out: Mean Remaining Enzyme Activity (%)
Experimental: Generally, the same procedure was used for all assays. Since the total assay volume was 25.5 microliters, 0.5 microliters of inhibitors at 51× assay concentration were added to the plates before any other addition.
The basic procedure was to add 0.5 microliters inhibitor/control in DMSO to plate. Fifteen microliters of enzyme/substrate/buffer mix were added and incubated for 5 min. Ten microliters MgATP at the relevant concentration were added and incubated for 30 min. The assay was stopped by adding 5 microliters of 3% orthophosphoric acid. The assay was transferred to a p81 filter plate and read in a scintillation counter of 30 sec/well. Note that this assay procedure was not followed for MKK1, which instead involved a two-step assay, and PKC alpha, which required the addition of lipid vesicles.
CAMKKa assay: 5-20 mU of CAMKKa (diluted in 50 mM Tris (pH 7.5), 0.1 mM EGTA, 1 mg/ml BSA, 0.1%, b-Mercaptoethanol) was assayed against substrate peptide ([…]) (SEQ ID NO: 31) in a final volume of 25.5 μl containing 50 mM Tris (pH 7.5), 0.1 mM EGTA, 0.5 mM CaCl2, 0.3 μM calmodulin, 0.1%, b-Mercaptoethanol, 300 μM substrate peptide, 10 mM magnesium acetate and 0.02 mM [33P-g-ATP] (500-1000 cpm/pmole) and incubated for 30 mins at room temperature. Assays were stopped by addition of 5 μl of 0.5M (3%) orthophosphoric acid. […]

PC-3 = test: cells; conditions: Homo sapiens
HS 578T = conditions: for Mean Optical Densities / Percent Growth: HS 578T
RXF 393 = test: cells; conditions: Homo sapiens
NCI-H522 = test: cells; conditions: Homo sapiens
SN12C = test: cells; conditions: Homo sapiens
U251 = test: cells; conditions: Homo sapiens
[1] = HOP-62, log10 concentration −4.0
[2] = HOP-62, log10 concentration −5.0
[3] = HOP-62, log10 concentration −6.0
[4] = HOP-62, log10 concentration −7.0
[5] = HOP-62, log10 concentration −8.0
[6] = UACC-257, log10 concentration −4.0
[7] = UACC-257, log10 concentration −5.0
[8] = UACC-257, log10 concentration −6.0
[9] = UACC-257, log10 concentration −7.0
[10] = UACC-257, log10 concentration −8.0
[11] = NCI-H226, log10 concentration −4.0
[12] = NCI-H226, log10 concentration −5.0
[13] = NCI-H226, log10 concentration −6.0
[14] = NCI-H226, log10 concentration −7.0
[15] = NCI-H226, log10 concentration −8.0
[16] = SK-MEL-5, log10 concentration −4.0
[17] = SK-MEL-5, log10 concentration −5.0
[18] = SK-MEL-5, log10 concentration −6.0
[19] = SK-MEL-5, log10 concentration −7.0
[20] = SK-MEL-5, log10 concentration −8.0
[21] = OVCAR-4, log10 concentration −4.0
[22] = OVCAR-4, log10 concentration −5.0
[23] = OVCAR-4, log10 concentration −6.0
[24] = OVCAR-4, log10 concentration −7.0
[25] = OVCAR-4, log10 concentration −8.0
[26] = NCI-H23, log10 concentration −4.0
[27] = NCI-H23, log10 concentration −5.0
[28] = NCI-H23, log10 concentration −6.0
[29] = NCI-H23, log10 concentration −7.0
[30] = NCI-H23, log10 concentration −8.0

With `CC(C)c1cnn2c(NCc3ccccc3)cc(NCCCCCCCN)nc12` [BS-181] the remaining activity at 10 µM (CAMKKα) was 57%.

`CC(C)c1cnn2c(NCc3ccccc3)cc(N[C@@H](CO)[C@H](O)CO)nc12` [ICEC0318, (3S)-3-(7-(Benzylamino)-3-isopropylpyrazolo[1,5-a]pyrimidin-5-ylamino)butane-1,2,4-triol] was tested, and the TGI (HOP-62; HOP-62 (Non-Small Cell Lung Cancer)) was 7.68E−7, the “Mean Optical Densities” value (HOP-62; [1]) was 0.336 and the “Percent Growth” value (HOP-62; [1]) was −28%. For the same compound, the “Mean Optical Densities” value (HOP-62; [2]) was 0.393, the “Percent Growth” value (HOP-62; [2]) was −15% and the “Mean Optical Densities” value (HOP-62; [3]) was 0.412. The “Percent Growth” value (HOP-62; [3]) was −12%, the “Mean Optical Densities” value (HOP-62; [4]) was 1.165 and the “Percent Growth” value (HOP-62; [4]) was 89%. For the same compound, the “Mean Optical Densities” value (HOP-62; [5]) was 1.312, the “Percent Growth” value (HOP-62; [5]) was 107% and the GI50 (PC-3; PC-3) was 314 nM. For the same compound, the CC50 (PC-3; PC-3, read-out: LC50) was greater than 100000 nM, the TGI (UACC-257; UACC-257 (Melanoma)) was 3.88E−5 and the “Mean Optical Densities” value (UACC-257; [6]) was 0.848. For the same compound, the “Percent Growth” value (UACC-257; [6]) was −4%, the “Mean Optical Densities” value (UACC-257; [7]) was 0.933 and the “Percent Growth” value (UACC-257; [7]) was 5%. The “Mean Optical Densities” value (UACC-257; [8]) was 0.948, the “Percent Growth” value (UACC-257; [8]) was 7% and the “Mean Optical Densities” value (UACC-257; [9]) was 1.891. The “Percent Growth” value (UACC-257; [9]) was 100%, the “Mean Optical Densities” value (UACC-257; [10]) was 1.906 and the “Percent Growth” value (UACC-257; [10]) was 102%. For the same compound, the TGI (HS 578T; HS 578T (Breast Cancer)) was 8.54E−7, the “Mean Optical Densities” value (HS 578T; log10 concentration −4.0) was 0.314 and the “Percent Growth” value (HS 578T; log10 concentration −4.0) was −22%. The “Mean Optical Densities” value (HS 578T; log10 concentration −5.0) was 0.352, the “Percent Growth” value (HS 578T; log10 concentration −5.0) was −12% and the “Mean Optical Densities” value (HS 578T; log10 concentration −6.0) was 0.373. The “Percent Growth” value (HS 578T; log10 concentration −6.0) was −7%, the “Mean Optical Densities” value (HS 578T; log10 concentration −7.0) was 0.803 and the “Percent Growth” value (HS 578T; log10 concentration −7.0) was 95%. The “Mean Optical Densities” value (HS 578T; log10 concentration −8.0) was 0.867, the “Percent Growth” value (HS 578T; log10 concentration −8.0) was 110% and the GI50 (RXF 393; RXF 393) was 213 nM. The CC50 (RXF 393; RXF 393, read-out: LC50) was 54600 nM, the GI50 (NCI-H522; NCI-H522) was 375 nM and the CC50 (NCI-H522; NCI-H522, read-out: LC50) was greater than 100000 nM. The TGI (KM12; KM12 (Colon Cancer)) was greater than 1.00E−4, the “Mean Optical Densities” value (KM12; KM12, log10 concentration −4.0) was 0.305 and the “Percent Growth” value (KM12; KM12, log10 concentration −4.0) was 10%. For the same compound, the “Mean Optical Densities” value (KM12; KM12, log10 concentration −5.0) was 0.304, the “Percent Growth” value (KM12; KM12, log10 concentration −5.0) was 10% and the “Mean Optical Densities” value (KM12; KM12, log10 concentration −6.0) was 0.318. For the same compound, the “Percent Growth” value (KM12; KM12, log10 concentration −6.0) was 12%, the “Mean Optical Densities” value (KM12; KM12, log10 concentration −7.0) was 0.802 and the “Percent Growth” value (KM12; KM12, log10 concentration −7.0) was 80%. For the same compound, the “Mean Optical Densities” value (KM12; KM12, log10 concentration −8.0) was 1.036, the “Percent Growth” value (KM12; KM12, log10 concentration −8.0) was 113% and the “Mean Optical Densities” value (NCI-H226; [11]) was 0.725. The “Percent Growth” value (NCI-H226; [11]) was 4%, the “Mean Optical Densities” value (NCI-H226; [12]) was 0.613 and the “Percent Growth” value (NCI-H226; [12]) was −9%. The “Mean Optical Densities” value (NCI-H226; [13]) was 0.662, the “Percent Growth” value (NCI-H226; [13]) was −1% and the “Mean Optical Densities” value (NCI-H226; [14]) was 1.920. The “Percent Growth” value (NCI-H226; [14]) was 89%, the “Mean Optical Densities” value (NCI-H226; [15]) was 2.076 and the “Percent Growth” value (NCI-H226; [15]) was 101%. It also gave a GI50 (SN12C) of 327 nM, a CC50 (SN12C; read-out: LC50) greater than 100000 nM and a TGI (SK-MEL-5; SK-MEL-5 (Melanoma)) of 5.33E−7. The “Mean Optical Densities” value (SK-MEL-5; [16]) was 0.260, the “Percent Growth” value (SK-MEL-5; [16]) was −58% and the “Mean Optical Densities” value (SK-MEL-5; [17]) was 0.275. For the same compound, the “Percent Growth” value (SK-MEL-5; [17]) was −56%, the “Mean Optical Densities” value (SK-MEL-5; [18]) was 0.427 and the “Percent Growth” value (SK-MEL-5; [18]) was −31%. The “Mean Optical Densities” value (SK-MEL-5; [19]) was 2.036, the “Percent Growth” value (SK-MEL-5; [19]) was 82% and the “Mean Optical Densities” value (SK-MEL-5; [20]) was 2.375. For the same compound, the “Percent Growth” value (SK-MEL-5; [20]) was 102%, the GI50 (U251; U-251) was 261 nM and the CC50 (U251; U-251, read-out: LC50) was greater than 100000 nM. For the same compound, the TGI (OVCAR-4; OVCAR-4 (Ovarian Cancer)) was 1.45E−5, the “Mean Optical Densities” value (OVCAR-4; [21]) was 0.269 and the “Percent Growth” value (OVCAR-4; [21]) was −25%. For the same compound, the “Mean Optical Densities” value (OVCAR-4; [22]) was 0.399, the “Percent Growth” value (OVCAR-4; [22]) was 5% and the “Mean Optical Densities” value (OVCAR-4; [23]) was 0.445. For the same compound, the “Percent Growth” value (OVCAR-4; [23]) was 10%, the “Mean Optical Densities” value (OVCAR-4; [24]) was 1.138 and the “Percent Growth” value (OVCAR-4; [24]) was 95%. For the same compound, the “Mean Optical Densities” value (OVCAR-4; [25]) was 1.246, the “Percent Growth” value (OVCAR-4; [25]) was 109% and the TGI (NCI-H23; NCI-H23 (Non-Small Cell Lung Cancer)) was greater than 1.00E−4. The “Mean Optical Densities” value (NCI-H23; [26]) was 0.562, the “Percent Growth” value (NCI-H23; [26]) was 1% and the “Mean Optical Densities” value (NCI-H23; [27]) was 0.563. For the same compound, the “Percent Growth” value (NCI-H23; [27]) was 1%, the “Mean Optical Densities” value (NCI-H23; [28]) was 0.633 and the “Percent Growth” value (NCI-H23; [28]) was 6%. For the same compound, the “Mean Optical Densities” value (NCI-H23; [29]) was 1.639, the “Percent Growth” value (NCI-H23; [29]) was 81% and the “Mean Optical Densities” value (NCI-H23; [30]) was 1.802. The “Percent Growth” value (NCI-H23; [30]) was 93%.
